Test results taken from patent US20240117431A1, “STEM-CELL BASED BIOMARKER DISCOVERY” (THE REGENTS OF THE UNIVERSITY OF CALIFORNIA, priority 2020, published 2024).
Entries after “also recorded” stand apart in the source; their conditions may differ.

Experiments:
[1] = target: T1, wild-type (WT) TgUPRT in HEK cells (Toxoplasma gondii, UniProt Q26998); assay: In-cell RNA incorporation by wild-type TgUPRT, streptavidin dot blot; assay type: cell-based
T1 construct: 6xHis; expressed in transfected cells; host or cells: HEK293 (HEK293T)
T1 sequence (Q26998 whole entry): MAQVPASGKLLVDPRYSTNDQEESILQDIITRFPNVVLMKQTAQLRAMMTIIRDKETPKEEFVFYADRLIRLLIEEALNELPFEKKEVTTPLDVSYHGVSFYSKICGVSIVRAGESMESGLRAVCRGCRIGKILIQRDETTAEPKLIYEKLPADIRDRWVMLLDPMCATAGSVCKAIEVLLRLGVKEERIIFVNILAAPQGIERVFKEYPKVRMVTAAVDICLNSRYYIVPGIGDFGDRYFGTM
Method: Transfection, labeling of cellular RNA and RNA isolation: After 48h seeding, HEK293 cells were transfected with 2.5 μg of TgUPRT WT or mutant plasmids (pKN-CMV-TgUPRT-WT or -Mutt to Mut17) per 5 cm plate using JetPrime Transfection reagent (Polyplus Transfection, France). At 40h post-transfection, cells were incubated with a final concentration of 200 μM at <1% DMSO from 400 mM stock of uracil analogs (5EU, 5VU, 5AU) or 200 mM SAMU stock for 5 h. For time course study, HEK cells were treated with 200 μM uracil analogs for 0 h, 0.5, 1, 3, 5, 12 and 24 hours. For titrating uracil analog concentration experiments, HEK cells were treated with 0 (DMSO), 50, 100, 200, 500 μM or 1 mM uracil analog for 5h. Treated HEK cells were subjected to total RNA extraction using 1 mL Trizol Reagent (Invitrogen) following the manufacturer instructions.
Biotinylation via CuAAC and IEDDA: Cu-mediated Azide-Alkyne cycloaddition (CuAAC) click reactions were performed in 50 μL reaction at 22° C. on a shaker for 30 min with click reaction cocktail containing 15 μg of total RNA, 1 mM biotin alkyne or biotin azide, fresh 4.6 mM THPTA to a final concentration of 1 mM, and fresh 10.6 mM sodium ascorbate (NaAsc) at final concentration of 1.77 mM, and 12 mM CuSO4 at final concentration of 200 μM in biotinylation reaction buffer (10 mM TrisHCI, 1 mM EDTA, pH7.4). The biotinylated RNA was purified using RNA clean & Concentrator-5 kit (Zymo Research, Cat #R1013) according to the manufacturer instructions and eluted in 21 μL of nuclease free water.
Inverse electron demand [4+2] Diels-Alder cycloaddition (IEDDA) click reactions were performed in 50 μL at 37° C. or 22° C. (RT) for 3h on mixer at 500 rpm containing 10-15 μg of total RNA, 1 mM final concentration of biotin-benzyl tetrazine (Sigma Aldrich, Cat #793329-5MG) in nuclease free water. Clicked total RNA was purified using RNA clean & Concentrator-5 kit (Zymo Research, Cat #R1013) according to the manufacturer instructions, and RNA was eluted in 21 μL of nuclease free water.
HRP-streptavidin dot blot analysis: All gel reagents were from Bio-Rad. […]

[2] = target: T2, uracil monophosphate synthetase (UMPS) overexpressed in HEK cells (Homo sapiens, UniProt P11172); assay: RNA incorporation with overexpression of UMPS, dot blot; assay type: cell-based; settings: 1 mM, 24 hours, FIG. 12
T2 construct: expressed in transfected cells; host or cells: HEK cells
T2 sequence (P11172 1-480): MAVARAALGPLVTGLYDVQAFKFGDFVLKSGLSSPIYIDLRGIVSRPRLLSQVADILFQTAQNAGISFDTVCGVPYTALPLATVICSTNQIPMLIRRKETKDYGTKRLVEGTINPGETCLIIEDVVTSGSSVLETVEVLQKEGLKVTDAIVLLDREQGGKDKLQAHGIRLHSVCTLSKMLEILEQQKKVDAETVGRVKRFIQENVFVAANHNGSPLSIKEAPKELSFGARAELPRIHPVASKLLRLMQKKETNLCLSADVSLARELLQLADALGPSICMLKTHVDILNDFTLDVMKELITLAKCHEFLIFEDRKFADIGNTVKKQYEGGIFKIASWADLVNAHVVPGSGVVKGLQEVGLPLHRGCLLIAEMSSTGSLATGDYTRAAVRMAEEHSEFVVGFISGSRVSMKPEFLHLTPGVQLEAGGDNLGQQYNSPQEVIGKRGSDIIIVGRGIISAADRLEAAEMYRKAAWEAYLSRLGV
Method: Analogs were incubated for 24 hours at 1 mM concentration in HEK cells. RNA was extracted and biotinylated using MTSEA-Biotin, followed by dot-blot analysis. Strep-HRP=Streptavidin conjugated Horseradish peroxidase. MeBI=methylene blue staining serving as loading control.

Compound: C=Cc1c[nH]c(=O)[nH]c1=O [compound 2, 5-Vinylpyrimidine-2,4(1H,3H)-dione]
- analog incorporation over time with wild-type TgUPRT ([1]; 200 μM, long periods of incubation, FIG. 9B): did not result in any observed incorporation
- incorporation into cellular RNA with UMPS overexpression [2]: did not result in 2 incorporation into RNA and not

Compound: C#Cc1c[nH]c(=O)[nH]c1=O [compound 1, 5-ethynylpyrimidine-2,4(1H,3H)-dione]
- TgUPRT-dependent incorporation into cellular RNA ([1]; wild-type TgUPRT active site): capable of such transformations
- incorporation into cellular RNA with UMPS overexpression [2]: higher amount; also recorded: incorporation
